For the series the following is noted: 298.15 K; 101.33 kPa; Liquid; Vibrating tube method.

± gives the expanded uncertainty stated by the source.

Usually mass density stands for the mass of a sample divided by its volume. With `OCC(F)(F)F` [2,2,2-trifluoroethanol], the mass density was determined as 1382.4 ± 0.6 kg/m3. For the compound `C1CCCCC1` [cyclohexane], the mass density turned out to be 774 ± 0.5 kg/m3.

As to `CCCCCCC` [heptane], the mass density came out at 680 ± 0.5 kg/m3. The result for `CO` [methanol] reads 787 ± 0.5 kg/m3; that for `CC(C)O` [propan-2-ol], 781.4 ± 0.5 kg/m3.

For the origin of these results see the NIST ThermoML archive (doi:10.1021/je8001688).
